According to US12692249B2, “WDR5 inhibitors and modulators” (Vanderbilt University, priority 2019, dated 2026):
Like-named read-outs stand apart in the source and are kept apart here.

How the values were obtained:
WDR5 = WDR5 (Homo sapiens, UniProt P61964); assay: TR-FRET competition binding assay, displacement of 10mer-Thr-FAM MLL peptide probe from His-tagged WDR5; details: WDR5-His tag (residues 24-334) 2 nM; 10mer-Thr-FAM 150 nM; 60 min, room temperature; read-out: Ki for Inhibition of WDR5 by TR-FRET assay
[1] = test system: MV4:11 human cancer cell lines; assay: Cellular viability / anti-proliferative assay, CellTiter-Glo, 5 day protocol; format: cell-based; details: Homo sapiens, MV4-11, 120 h, read-out: GI50 on cellular proliferation of MV4:11 human cancer cell lines
Procedure, shortened: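 Luminescent ATP-based viability (CellTiter-Glo) after a 5-day exposure gave GI50 via sigmoidal fitting, averaged over two or more replicates. Compounds spanned 22 two-fold steps down from 30 μM at 0.3% DMSO, on 200 MV-4-11 cells per well grown in IMDM plus 10% FBS.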

[2] = MV4:11 cells, 5 day incubation, CellTiter-Glo, mean of at least two replicates

Ki (WDR5)	GI50 [1, 2]	Structure (SMILES)	GI50 [1]
> 33000 nM	3970 nM	COc1ccc2nc(C)cc(N3CCc4c(cc(Cn5ccnc5[N+](=O)[O-])cc4-c4cn(C)nc4C(F)(F)F)C3=O)c2c1 [Example 118, 2-(6-Methoxy-2-methylquinolin-4-yl)-5-(1-methyl-3-(trifluoromethyl)-1H-pyrazol-4-yl)-7-((2-nitro-1H-imidazol-1-yl)methyl)-3,4-dihydroisoquinolin-1(2)-one]	–
0.057 nM	457 nM	CCc1nc2cccc(N3CCc4c(cc(Cn5ccnc5)cc4-c4cn(C)nc4C(F)(F)F)C3=O)c2cc1C [Example 119, 7-((1H-Imidazol-1-yl)methyl)-2-(2-ethyl-3-methylquinolin-5-yl)-5-(1-methyl-3-(trifluoromethyl)-1H-pyrazol-4-yl)-3,4-dihydroisoquinolin-1(2H)-one]	–
0.023 nM	< 20 nM	CCc1cc(OC)c2nc(C)cc(N3CCc4c(cc(Cn5ccnc5)cc4-c4cn(C)nc4C(F)(F)F)C3=O)c2c1 [Example 120, 7-((1H-Imidazol-1-yl)methyl)-2-(6-ethyl-8-methoxy-2-methylquinolin-4-yl)-5-(1-methyl-3-(trifluoromethyl)-1H-pyrazol-4-yl)-3,4-dihydroisoquinolin-1(2H)-one]	–
0.023 nM	< 20 nM	COc1ccc2nc(C)cc(N3CCc4c(cc(Cn5ccnc5N)cc4-c4cn(C)nc4C(F)(F)F)C3=O)c2c1 [Example 121, 7-((2-Amino-1H-imidazol-1-yl)methyl)-2-(6-methoxy-2-methylquinolin-4-yl)-5-(1-methyl-3-(trifluoromethyl)-1-1H-pyrazol-4-yl)-3,4-dihydroisoquinolin-1(2H)-one]	–
0.052 nM	27 nM	COc1cc(OC)c2cncc(N3CCc4c(cc(Cn5ccnc5)cc4-c4cn(C)nc4C(F)(F)F)C3=O)c2c1 [Example 122, 7-((1H-Imidazol-1-yl)methyl)-6′,8′-dimethoxy-5-(1-methyl-3-(trifluoromethyl)-1H-pyrazol-4-yl)-3,4-dihydro-1H-[2,4′-biisoquinolin]-1-one]	–
0.04 nM	< 20 nM	COc1cc(N2CCN(C)CC2)c2cncc(N3CCc4c(cc(Cn5ccnc5)cc4-c4cn(C)nc4C(F)(F)F)C3=O)c2c1 [Example 123, 7-((1H-Imidazol-1-yl)methyl)-6′-methoxy-5-(1-methyl-3-(trifluoromethyl)-1H-pyrazol-4-yl)-8′-(4-methylpiperazin-1-yl)-3,4-dihydro-1H-[2,4′-biisoquinolin]-1-one]	–
0.03 nM	< 20 nM	CCc1cc(N2CCN3CCOC[C@H]3C2)c2nc(C)cc(N3CCc4c(cc(Cn5ccnc5)cc4-c4cn(C)nc4C(F)(F)F)C3=O)c2c1 [Example 124, (R)-7-((1H-Imidazol-1-yl)methyl)-2-(6-ethyl-8-(hexahydropyrazino[2,1-c][1,4]oxazin-8(1H)-yl)-2-methylquinolin-4-yl)-5-(1-methyl-3-(trifluoromethyl)-1H-pyrazol-4-yl)-3,4-dihydroisoquinolin-1(2H)-one]	–
0.021 nM	< 20 nM	COc1cc(CN2CCN(C(C)=O)CC2)c2nccc(N3CCc4c(cc(Cn5ccnc5)cc4-c4cn(C)nc4C(F)(F)F)C3=O)c2c1 [Example 127, 7-((1H-Imidazol-1-yl)methyl)-2-(8-((4-acetylpiperazin-1-yl)methyl)-6-methoxyquinolin-4-yl)-5-(1-methyl-3-(trifluoromethyl)-1H-pyrazol-4-yl)-3,4-dihydroisoquinolin-1(2H)-one]	–
0.043 nM	< 20 nM	COc1cc(CN2CCN(C)C(=O)C2)c2nccc(N3CCc4c(cc(Cn5ccnc5)cc4-c4cn(C)nc4C(F)(F)F)C3=O)c2c1 [Example 131, 7-((1H-Imidazol-1-yl)methyl)-2-(6-methoxy-8-((4-methyl-3-oxopiperazin-1-yl)methyl)quinolin-4-yl)-5-(1-methyl-3-(trifluoromethyl)-1H-pyrazol-4-yl)-3,4-dihydroisoquinolin-1(2H)-one]	–
0.03 nM	< 20 nM	CCc1cc(N2CCN(C3COC3)CC2)c2nc(C)cc(N3CCc4c(cc(Cn5ccnc5)cc4-c4cn(C)nc4C(F)(F)F)C3=O)c2c1 [Example 132, 7-((1H-Imidazol-1-yl)methyl)-2-(6-ethyl-2-methyl-8-(4-(oxetan-3-yl)piperazin-1-yl)quinolin-4-yl)-5-(1-methyl-3-(trifluoromethyl)-1H-pyrazol-4-yl)-3,4-dihydroisoquinolin-1(2H)-one]	–
0.035 nM	< 20 nM	COc1cc(CN2CCOCC2)c2nccc(N3CCc4c(cc(Cn5ccnc5)cc4-c4cn(C)nc4C(F)(F)F)C3=O)c2c1 [Example 133, 7-((1H-Imidazol-1-yl)methyl)-2-(6-methoxy-8-(morpholinomethyl)quinolin-4-yl)-5-(1-methyl-3-(trifluoromethyl)-1H-pyrazol-4-yl)-3,4-dihydroisoquinolin-1(2H)-one]	–
0.03 nM	< 20 nM	CCc1cc(N2CCN3CCOC[C@@H]3C2)c2nc(C)cc(N3CCc4c(cc(Cn5ccnc5)cc4-c4cn(C)nc4C(F)(F)F)C3=O)c2c1 [Example 134, (S)-7-((1H-imidazol-1-yl)methyl)-2-(6-ethyl-8-(hexahydropyrazino[2,1-c][1,4]oxazin-8(1H)-yl)-2-methylquinolin-4-yl)-5-(1-methyl-3-(trifluoromethyl)-1H-pyrazol-4-yl)-3,4-dihydroisoquinolin-1(2H)-one]	–
0.04 nM	< 20 nM	COc1cc(CN2CCN(C)CC2)c2nccc(N3CCc4c(cc(Cn5ccnc5)cc4-c4cn(C)nc4C(F)(F)F)C3=O)c2c1 [Example 135, 7-((1H-Imidazol-1-yl)methyl)-2-(6-methoxy-8-((4-methylpiperazin-1-yl)methyl)quinolin-4-yl)-5-(1-methyl-3-(trifluoromethyl)-1H-pyrazol-4-yl)-3,4-dihydroisoquinolin-1(2H)-one]	–
< 0.02 nM	< 20 nM	COCc1cc(OC)cc2c(N3CCc4c(cc(Cn5ccnc5)cc4-c4cn(C)nc4C(F)(F)F)C3=O)ccnc12 [Example 136, 7-((1H-Imidazol-1-yl)methyl)-2-(6-methoxy-8-(methoxymethyl)quinolin-4-yl)-5-(1-methyl-3-(trifluoromethyl)-1H-pyrazol-4-yl)-3,4-dihydroisoquinolin-1(2H)-one]	–
< 0.02 nM	< 20 nM	COc1cc(CN2CCCC2)c2nccc(N3CCc4c(cc(Cn5ccnc5)cc4-c4cn(C)nc4C(F)(F)F)C3=O)c2c1 [Example 138, 7-((1H-Imidazol-1-yl)methyl)-2-(6-methoxy-8-(pyrrolidin-1-ylmethyl)quinolin-4-yl)-5-(1-methyl-3-(trifluoromethyl)-1H-pyrazol-4-yl)-3,4-dihydroisoquinolin-1(2H)-one]	–
< 0.02 nM	< 20 nM	COc1cc(Cn2ccnc2)c2nccc(N3CCc4c(cc(Cn5ccnc5)cc4-c4cn(C)nc4C(F)(F)F)C3=O)c2c1 [Example 139, 7-((1H-imidazol-1-yl)methyl)-2-(8-((1H-imidazol-1-yl)methyl)-6-methoxyquinolin-4-yl)-5-(1-methyl-3-(trifluoromethyl)-1H-pyrazol-4-yl)-3,4-dihydroisoquinolin-1(2H)-one]	–
< 0.02 nM	< 20 nM	CCc1cc(OCCOC)c2nccc(N3CCc4c(cc(Cn5ccnc5)cc4-c4cn(C)nc4C(F)(F)F)C3=O)c2c1 [Example 140, 7-((1H-Imidazol-1-yl)methyl)-2-(6-ethyl-8-(2-methoxyethoxy)quinolin-4-yl)-5-(1-methyl-3-(trifluoromethyl)-1H-pyrazol-4-yl)-3,4-dihydroisoquinolin-1(2H)-one]	–
0.07 nM	< 20 nM	COc1cc(CN2CCN3CCOC[C@@H]3C2)c2nccc(N3CCc4c(cc(Cn5ccnc5)cc4-c4cn(C)nc4C(F)(F)F)C3=O)c2c1 [Example 141, (S)-7-((1H-Imidazol-1-yl)methyl)-2-(8-((hexahydropyrazino[2,1-c][1,4]oxazin-8(1H)-yl)methyl)-6-methoxyquinolin-4-yl)-5-(1-methyl-3-(trifluoromethyl)-1H-pyrazol-4-yl)-3,4-dihydroisoquinolin-1(2H)-one]	–

Structure (SMILES)	Ki (WDR5)	GI50 [1, 2]	GI50 [1]
CCc1cc2c(N3CCc4c(cc(Cn5ccnc5)cc4-c4cn(C)nc4C(F)(F)F)C3=O)cccc2nc1C [Example 117, 7-((1H-Imidazol-1-yl)methyl)-2-(3-ethyl-2-methylquinolin-5-yl)-5-(1-methyl-3-(trifluoromethyl)-1H-pyrazol-4-yl)-3,4-dihydroisoquinolin-1(2H)-one]	0.036 nM	–	64 nM
COc1cc(CN2CCCCC2)c2nccc(N3CCc4c(cc(Cn5ccnc5)cc4-c4cn(C)nc4C(F)(F)F)C3=O)c2c1 [Example 128]	0.038 nM	–	< 20 nM
CCc1cnc2cc(C)cc(N3CCc4c(cc(Cn5ccnc5)cc4-c4cn(C)nc4C(F)(F)F)C3=O)c2c1 [Example 129, 7-((1H-Imidazol-1-yl)methyl)-2-(3-ethyl-7-methylquinolin-5-yl)-5-(1-methyl-3-(trifluoromethyl)-1H-pyrazol-4-yl)-3,4-dihydroisoquinolin-1(2H)-one]	0.029 nM	–	35 nM
Cn1cc(-c2cc(Cn3ccnc3)cc3c2CCN(c2cccc4ncc(C5CC5)cc24)C3=O)c(C(F)(F)F)n1 [Example 130, 7-((1H-Imidazol-1-yl)methyl)-2-(3-cyclopropylquinolin-5-yl)-5-(1-methyl-3-(trifluoromethyl)-1H-pyrazol-4-yl)-3,4-dihydroisoquinolin-1(2H)-one]	0.051 nM	–	218 nM
